Test results from US20250368628A1, “METHODS AND COMPOUNDS FOR MODULATING INHERITED GENETIC DISEASES” (Design Therapeutics, Inc., priority 2022, published 2025).
Where two headings read alike, the source gives them in different places.

What was measured:
F35T cells = experiment: Foci reduction in FECD (CAG10-Cy3 FISH, foci per nucleus); assay type: cell-based
Procedure, shortened: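 F35T cells, 5000 per well, were treated for 48 h at 37 °C, 5% CO2 in an 8-point dose response. Cells were then fixed in 4% PFA, permeabilized in 70% ethanol and hybridized overnight at 37 °C with a CAG10-Cy3 probe in 30% formamide/2×SSC. After DAPI staining, imaging gave foci per nucleus.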

[1] = tested on: Myotonic Dystrophy 1 affected patient fibroblasts (Coriel GM04602; 1600 CTG repeats); experiment: DM1 foci reduction assay (EC50 assay; CAG10-Cy3 FISH, foci per nucleus); assay type: cell-based; settings: Homo sapiens, Fibroblast
Procedure, shortened: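 GM04602 DM1 patient fibroblasts (1600 CTG repeats) seeded 24 h, then treated 48 h at 37 °C with an 8-point 1:3 dose series from 3 μM. Cells PFA-fixed, ethanol-permeabilized and hybridized overnight with 5 nM CAG10-Cy3 probe, DAPI counterstained. Imaged at 20×, 4 fields per well, as average foci per nucleus.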

[2] = F35T cells, 48 h treatment, foci per nucleus, read-out: FECD EC50, 48 h
[3] = DM1 patient fibroblasts, 48 h treatment, foci per nucleus, read-out: DM1 EC50, 48 h
[4] = 48 h, read-out: FECD EC50, 48 h (nM)
[5] = 48 h, read-out: DM1 EC50, 48 h (nM)
[6] = F35T cells, foci per nucleus, 48 h treatment, read-out: FECD EC50, 48 h
[7] = DM1 patient fibroblasts, foci per nucleus, 48 h treatment, read-out: DM1 EC50, 48 h

Structure (SMILES) | EC50 (F35T cells; [2]) | EC50 [1, 3] | other results
Cn1cc(NC(=O)c2nc(NC(=O)CCNC(=O)c3cc(NC(=O)c4nccn4C)cn3C)cn2C)cc1C(=O)NCCCC(=O)Nc1cn(C)c(C(=O)NCCC(=O)Nc2cc(C(=O)Nc3cn(C)c(C(=O)NCCCN(CC#Cc4ccc(C(=O)O)cc4)CCCN)n3)n(C)c2)n1 [Compound B-384] | 100 to 500 nM | 100 to 500 nM | 
Cn1cc(NC(=O)c2nc(NC(=O)CCNC(=O)c3cc(NC(=O)c4nccn4C)cn3C)cn2C)cc1C(=O)NCCCC(=O)Nc1cn(C)c(C(=O)NCCC(=O)Nc2cc(C(=O)Nc3cn(C)c(C(=O)NCCC(=O)N4CCC(C#CC#CC5CCCCC5)CC4)n3)n(C)c2)n1 [Compound B-385] | 100 to 500 nM | > 1000 nM | 
Cn1cc(NC(=O)c2nc(NC(=O)CCNC(=O)c3cc(NC(=O)c4nccn4C)cn3C)cn2C)cc1C(=O)NCCCC(=O)Nc1cn(C)c(C(=O)NCCC(=O)Nc2cc(C(=O)Nc3cn(C)c(C(=O)NCCCN(C(=O)OC(C)(C)C)C(CO)CO)n3)n(C)c2)n1 [Compound B-390] | 100 to 500 nM | 100 to 500 nM | 
Cn1cc(NC(=O)c2nc(NC(=O)CCNC(=O)c3cc(NC(=O)c4nccn4C)cn3C)cn2C)cc1C(=O)NCCCC(=O)Nc1cn(C)c(C(=O)NCCC(=O)Nc2cc(C(=O)Nc3cn(C)c(C(=O)NCCC(=O)NC4COP(=O)(Oc5ccccc5Cl)OC4)n3)n(C)c2)n1 (centres unmarked) [Compound B-391] |  |  | EC50 (F35T cells; [4]): > 1000 nM; EC50 [1, 5]: > 1000 nM
Cn1cc(NC(=O)c2nc(NC(=O)CCNC(=O)c3cc(NC(=O)c4nccn4C)cn3C)cn2C)cc1C(=O)NCCCC(=O)Nc1cn(C)c(C(=O)NCCC(=O)Nc2cc(C(=O)Nc3cn(C)c(C(=O)NCCC(=O)NC4COP(=O)(O)OC4)n3)n(C)c2)n1 (centres unmarked) [Compound B-392] | > 1000 nM | 500 to 1000 nM | 
Cn1cc(NC(=O)c2nc(NC(=O)CCNC(=O)c3cc(NC(=O)c4nccn4C)cn3C)cn2C)cc1C(=O)NCCCC(=O)Nc1cn(C)c(C(=O)NCCC(=O)Nc2cc(C(=O)Nc3cn(C)c(C(=O)NCCC(=O)NC(CO)COP(=O)(O)Oc4ccccc4Cl)n3)n(C)c2)n1 (centres unmarked) [Compound B-394] |  |  | EC50 (F35T cells; [4]): 500 to 1000 nM; EC50 [1, 5]: 100 to 500 nM
CCOC(=O)CCNC(=O)c1nc(NC(=O)c2cc(NC(=O)CCNC(=O)c3nc(NC(=O)CCCNC(=O)c4cc(NC(=O)c5nc(NC(=O)CCNC(=O)c6cc(NC(=O)c7nccn7C)cn6C)cn5C)c[nH]4)cn3C)cn2C)cn1C [Compound B-395] | 100 to 500 nM | 500 to 1000 nM | 
CCCNC(=O)CCNC(=O)c1nc(NC(=O)c2cc(NC(=O)CCNC(=O)c3nc(NC(=O)CCCNC(=O)c4cc(NC(=O)c5nc(NC(=O)CCNC(=O)c6cc(NC(=O)c7nccn7C)cn6C)cn5C)c[nH]4)cn3C)cn2C)cn1C [Compound B-396] | 100 to 500 nM | 100 to 500 nM | 
CCCNC(=O)CCNC(=O)c1nc(NC(=O)c2cc(NC(=O)CCNC(=O)c3nc(NC(=O)CCCNC(=O)c4cc(NC(=O)c5nc(NC(=O)CCNC(=O)c6cc(NC(=O)c7nccn7C)cn6C)cn5C)cn4CCCCCNC(=O)c4ccccc4)cn3C)cn2C)cn1C [Compound B-397] | 100 to 500 nM | 100 to 500 nM | 
CCCNC(=O)CCNC(=O)c1nc(NC(=O)c2cc(NC(=O)CCNC(=O)c3nc(NC(=O)CCCNC(=O)c4cc(NC(=O)c5nc(NC(=O)CCNC(=O)c6cc(NC(=O)c7nccn7C)cn6C)cn5C)cn4CCCCCNC(=O)C(C)(C)C)cn3C)cn2C)cn1C [Compound B-398] | 100 to 500 nM | 100 to 500 nM | 
C=C(NCCC(=O)Nc1cc(C(=O)Nc2cn(C)c(C(=O)NCCC(=O)NCCC)n2)n(C)c1)c1nc(NC(=O)CCCNC(=O)c2cc(NC(=O)c3nc(NC(=O)CCNC(=O)c4cc(NC(=O)c5nccn5C)cn4C)cn3C)cn2CCCNC(=O)c2ccccc2)cn1C [Compound B-399] | < 100 nM | 500 to 1000 nM | 
C=C(NCCC(=O)Nc1cc(C(=O)Nc2cn(C)c(C(=O)NCCC(=O)NCCC)n2)n(C)c1)c1nc(NC(=O)CCCNC(=O)c2cc(NC(=O)c3nc(NC(=O)CCNC(=O)c4cc(NC(=O)c5nccn5C)cn4C)cn3C)cn2CCCNC(=O)C(C)(C)C)cn1C [Compound B-400] | < 100 nM | < 100 nM | 
C=C(NCCC(=O)Nc1cc(C(=O)Nc2cn(C)c(C(=O)NCCC(=O)NCCC)n2)n(C)c1)c1nc(NC(=O)CCCNC(=O)c2cc(NC(=O)c3nc(NC(=O)CCNC(=O)c4cc(NC(=O)c5nccn5C)cn4C)cn3C)cn2CCCn2cc(COCCOCCOCCOC)nn2)cn1C [Compound B-401] | < 100 nM | 100 to 500 nM | 
C=C(NCCC(=O)Nc1cc(C(=O)Nc2cn(C)c(C(=O)NCCC(=O)N3CCC(C#CC#CC4CCN(C(C)=O)CC4)CC3)n2)n(C)c1)c1nc(NC(=O)CCCNC(=O)c2cc(NC(=O)c3nc(NC(=O)CCNC(=O)c4cc(NC(=O)c5nccn5C)cn4C)cn3C)cn2CCCn2cc(COCCOCCOCCOC)nn2)cn1C [Compound B-402] | < 100 nM | 100 to 500 nM | 
CCCNC(=O)CCNC(=O)c1nc(NC(=O)c2cc(NC(=O)CCNC(=O)c3nc(NC(=O)CCCNC(=O)c4cc(NC(=O)c5nc(NC(=O)CCNC(=O)c6cc(NC(=O)c7nccn7C)cn6C)cn5C)cn4CC(C)C)cn3C)cn2C)cn1C [Compound B-403] | < 100 nM | < 100 nM | 
CC(=O)N[C@H](CCNC(=O)c1cc(NC(=O)c2nc(NC(=O)CCNC(=O)c3cc(NC(=O)c4nccn4C)cn3C)cn2C)cn1C)C(=O)Nc1cn(C)c(C(=O)NCCC(=O)Nc2cc(C(=O)Nc3cn(C)c(C(=O)NCCC(=O)N4CCN(C)CC4)n3)n(C)c2)n1 [Compound B-404] | 100 to 500 nM | 500 to 1000 nM | 
CN1CCN(C(=O)CCNC(=O)c2nc(NC(=O)c3cc(NC(=O)CCNC(=O)c4nc(NC(=O)[C@H](N)CCNC(=O)c5cc(NC(=O)c6nc(NC(=O)CCNC(=O)c7cc(NC(=O)c8nccn8C)cn7C)cn6C)cn5C)cn4C)cn3C)cn2C)CC1 [Compound B-405] | > 1000 nM | > 1000 nM | 
Cn1cc(NC(=O)c2nccn2C)cc1C(=O)NCCC(=O)Nc1cn(C)c(C(=O)Nc2cc(C(=O)NCC[C@@H](N)C(=O)Nc3cn(C)c(C(=O)NCCC(=O)Nc4cc(C(=O)Nc5cn(C)c(C(=O)CCCC(=O)N6CCCCC6)n5)n(C)c4)n3)n(C)c2)n1 [Compound B-406] | > 1000 nM | 100 to 500 nM | 
Cn1cc(NC(=O)c2nccn2C)cc1C(=O)NCCC(=O)Nc1cn(C)c(C(=O)Nc2cc(C(=O)NCC[C@@H](N)C(=O)Nc3cn(C)c(C(=O)NCCC(=O)Nc4cc(C(=O)Nc5cn(C)c(C(=O)NCCC(=O)N6CCC(C#CC#CC7CCNCC7)CC6)n5)n(C)c4)n3)n(C)c2)n1 [Compound B-407] | 500 to 1000 nM | 100 to 500 nM | 
CCCCn1cc(NC(=O)c2nc(NC(=O)CCNC(=O)c3cc(NC(=O)c4nccn4C)cn3C)cn2C)cc1C(=O)NCC[C@@H](N)C(=O)Nc1cn(C)c(C(=O)NCCC(=O)Nc2cc(C(=O)Nc3cn(C)c(C(=O)NCCC(=O)N4CCN(C)CC4)n3)n(C)c2)n1 [Compound B-408] | 100 to 500 nM | 100 to 500 nM | 
CCCNC(=O)c1nc(NC(=O)c2cc(NC(=O)CCNC(=O)c3nc(NC(=O)[C@H](N)CCNC(=O)c4cc(NC(=O)c5nc(NC(=O)CCNC(=O)c6cc(NC(=O)c7nccn7C)cn6C)cn5C)cn4C)cn3C)cn2C)cn1C [Compound B-409] | < 100 nM | < 100 nM | 
CN(C)CCCCNC(=O)c1nc(NC(=O)c2cc(NC(=O)CCNC(=O)c3nc(NC(=O)[C@H](N)CCNC(=O)c4cc(NC(=O)c5nc(NC(=O)CCNC(=O)c6cc(NC(=O)c7nccn7C)cn6C)cn5C)cn4C)cn3C)cn2C)cn1C [Compound B-410] |  |  | EC50 (F35T cells; [6]): > 1000 nM; EC50 [1, 7]: 500 to 1000 nM
COCCOCCOCCOCCOCCOCCOc1ccc(C#CCNCCCNC(=O)c2nc(NC(=O)c3cc(NC(=O)CCNC(=O)c4nc(NC(=O)CCCNC(=O)c5cc(NC(=O)c6nc(NC(=O)CCNC(=O)c7cc(NC(=O)c8nccn8C)cn7C)cn6C)cn5C)cn4C)cn3C)cn2C)cc1 [Compound B-412] |  |  | EC50 (F35T cells; [6]): < 100 nM; EC50 [1, 7]: > 1000 nM
COCCOCCOCCOCCOCCOCCOc1ccccc1C#CCNCCCNC(=O)c1nc(NC(=O)c2cc(NC(=O)CCNC(=O)c3nc(NC(=O)CCCNC(=O)c4cc(NC(=O)c5nc(NC(=O)CCNC(=O)c6cc(NC(=O)c7nccn7C)cn6C)cn5C)cn4C)cn3C)cn2C)cn1C [Compound B-414] |  |  | EC50 (F35T cells; [6]): < 100 nM; EC50 [1, 7]: 100 to 500 nM
CCCNC(=O)CCNC(=O)c1nc(NC(=O)c2cc(NC(=O)CCNC(=O)c3nc(NC(=O)C[C@@H](N)CNC(=O)c4cc(NC(=O)c5nc(NC(=O)CCNC(=O)c6cc(NC(=O)c7nccn7C)cn6C)cn5C)cn4C)cn3C)cn2C)cn1C [Compound B-415] |  |  | EC50 (F35T cells; [6]): 100 to 500 nM; EC50 [1, 7]: 100 to 500 nM
CN1CCN(C(=O)CCNC(=O)c2nc(NC(=O)c3cc(NC(=O)CCNC(=O)c4nc(NC(=O)C[C@@H](N)CNC(=O)c5cc(NC(=O)c6nc(NC(=O)CCNC(=O)c7cc(NC(=O)c8nccn8C)cn7C)cn6C)cn5C)cn4C)cn3C)cn2C)CC1 [Compound B-416] |  |  | EC50 (F35T cells; [6]): > 1000 nM; EC50 [1, 7]: 500 to 1000 nM
CN1CCN(C(=O)CCNC(=O)c2nc(NC(=O)c3cc(NC(=O)CCNC(=O)c4nc(NC(=O)C[C@H](CNC(=O)c5cc(NC(=O)c6nc(NC(=O)CCNC(=O)c7cc(NC(=O)c8nccn8C)cn7C)cn6C)cn5C)NC(=O)c5ccccc5)cn4C)cn3C)cn2C)CC1 [Compound B-417] |  |  | EC50 (F35T cells; [6]): < 100 nM; EC50 [1, 7]: 100 to 500 nM
Cn1cc(NC(=O)c2nccn2C)cc1C(=O)NCCC(=O)Nc1cn(C)c(C(=O)Nc2cc(C(=O)NC[C@H](N)CC(=O)Nc3cn(C)c(C(=O)NCCC(=O)Nc4cc(C(=O)Nc5cn(C)c(C(=O)NCCC(=O)N6CCCCC6)n5)n(C)c4)n3)n(C)c2)n1 [Compound B-418] |  |  | EC50 (F35T cells; [6]): < 100 nM; EC50 [1, 7]: 100 to 500 nM
